# Test results taken from ChEMBL document CHEMBL5241109, “Roles and drug development of METTL3 (methyltransferase-like 3) in anti-tumor therapy” (Eur J Med Chem, 2022).
# Tests used:
# [1] = molecular target: T1, N6-adenosine-methyltransferase catalytic subunit (Homo sapiens, UniProt Q86U44); assay: Inhibition of METTL3 (unknown origin)
# [2] = molecular target: T1, N6-adenosine-methyltransferase catalytic subunit; assay: Inhibition of METTL3 (unknown origin) assessed as remaining activity at 500 uM relative to control
# [3] = Efflux ratio of apparent permeability across basolateral to apical side over apical to basolateral side in human Caco-2 cells; type: ADME, cell-based
# [4] = Apparent permeability across basolateral to apical side in human Caco-2 cells; type: ADME, cell-based
# [5] = Apparent permeability across apical to basolateral side in human Caco-2 cells; type: ADME, cell-based
# T1 sequence (Q86U44 whole entry): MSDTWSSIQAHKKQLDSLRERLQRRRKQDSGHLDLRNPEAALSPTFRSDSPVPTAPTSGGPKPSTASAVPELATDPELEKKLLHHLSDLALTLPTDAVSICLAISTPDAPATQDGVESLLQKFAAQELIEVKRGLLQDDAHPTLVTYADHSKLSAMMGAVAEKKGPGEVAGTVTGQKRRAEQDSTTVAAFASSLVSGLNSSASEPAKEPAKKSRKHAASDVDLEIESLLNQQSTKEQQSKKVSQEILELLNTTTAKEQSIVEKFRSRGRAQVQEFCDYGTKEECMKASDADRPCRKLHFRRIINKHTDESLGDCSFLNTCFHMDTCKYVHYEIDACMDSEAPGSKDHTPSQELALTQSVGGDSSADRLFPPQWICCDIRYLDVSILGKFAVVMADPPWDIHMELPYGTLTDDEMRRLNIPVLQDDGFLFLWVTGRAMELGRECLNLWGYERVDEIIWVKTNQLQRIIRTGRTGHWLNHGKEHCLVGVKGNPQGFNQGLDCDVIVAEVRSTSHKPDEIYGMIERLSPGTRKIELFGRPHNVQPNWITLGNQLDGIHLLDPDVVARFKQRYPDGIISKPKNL
smiles,measurement,setting,value
Nc1ncnc2c1ncn2[C@@H]1O[C@H](CO)[C@@H](O)[C@H]1O [ADENOSINE],IC50,[1],495 µM
Nc1ncnc2c1ncn2[C@@H]1O[C@H](C(=O)NCCCCN2CCCC2)[C@@H](O)[C@H]1O,IC50,[1],8.7 µM
Nc1ncnc2c1ncn2C[C@H]1OC[C@@H](N)[C@H](O)[C@@H]1O,IC50,[1],> 250 µM
same,Activity,[2],107%
CC[C@H]1OC(=O)[C@H](C)[C@@H](O[C@H]2C[C@@](C)(OC)[C@@H](O)[C@H](C)O2)[C@H](C)[C@@H](O[C@@H]2O[C@H](C)C[C@H](N(C)C)[C@H]2O)[C@](C)(O)C[C@@H](C)C(=O)[C@H](C)[C@@H](O)[C@]1(C)O [ERYTHROMYCIN],Ratio,[3],62.9
same,Papp,[4],17.5 10^-6 cm/s
same,Papp,[5],0.2 10^-6 cm/s
COCCc1ccc(OCC(O)CNC(C)C)cc1 (configuration not stated) [METOPROLOL],efflux ratio,[3],1.1
same,Papp B→A,[4],33.3 ×10⁻⁶ cm/s
same,Papp A→B,[5],31.4 ×10⁻⁶ cm/s
Nc1ncnc2c1ncn2[C@@H]1O[C@H](C(=O)NCCCNC(=O)c2ccccn2)[C@@H](O)[C@H]1O,IC50,[1],332 µM
same,Activity,[2],38%
CNC1CCC(O)(Cn2cnc3c(N)ncnc32)C(O)C1 (configuration not stated),IC50,[1],98 µM
same,Activity,[2],20%
Nc1ncnc2c1ncn2[C@@H]1O[C@H](C(=O)NCC2CCNCC2)[C@@H](O)[C@H]1O,IC50,[1],> 250 µM
CN1CCC(NC(=O)[C@H]2O[C@@H](n3cnc4c(N)ncnc43)[C@H](O)[C@@H]2O)CC1,IC50,[1],65 µM
same,Activity,[2],18%
